Assay results: patent US10598667B2, “Functional illumination in living cells” (The Regents of the University of California, priority 2013, dated 2020)
Entries after “also recorded” stand apart in the source; their conditions may differ. Like-named read-outs stand apart in the source and are kept apart here. Bridges are numbered along the chain shown (N, C = ends). Where no end group is shown, it is not given here. [ ]: non-standard residue; d: D form. pY = N[C@@H](Cc1ccc(OP(=O)(O)O)cc1)C(=O)O

Legend:
[1] = Abltide motif OBOC library screening with MG before and after dephosphorylation; format: binding; settings: for Post-dephos fluorescent signal: after dephosphorylation (treatment with 50% HF); for Pre-dephos fluorescent signal: before dephosphorylation; for ΔF/F: pre- vs post-dephosphorylation
Text: Screening for Library category 2 (Table 2) necessitates that the entire OBOC bead library array be scanned with and without MG or other dyes, before and after PTM. Here, we will use c-src PTK as an example. We have previously reported the use of OBOC combichem and radiosubstrate screening method to identify an efficient and specific peptide substrate (YIYGSFK; SEQ ID NO:35) for c-src PTK. […] Recently, we prepared YIY(P)GSFKKKXn (SEQ ID NO:216) libraries (X=all 19 L-amino acids except Cys, n=6-9) and screened them against MG. After 1 hr incubation, near-infra-red image of the entire immobilized library was captured. The bead library was then thoroughly washed, and dephosphorylated with 50% HF. Beads that strongly fluoresce near infra-red before dephosphorylation but fluoresce weakly (or none) after dephosphorylation were selected as candidate GESIs for c-src PTK (Table 6). Of these 8 peptides isolated from screening ˜300,000 beads, 3 has 1 Trp, and the remaining 5 have no Trp. Work is currently underway to characterize their substrate efficiency and specificity biochemically in a cell-free system and subsequently inside living cells. In principle, using various dyes and PKs to screen OBOC libraries, we should be able to develop several GESIs against several PKs that can be multiplexed with different dyes in living cells. We have developed GESIs for one serine/threonine kinase (PKA), and two tyrosine kinases (c-src and bcr-abl). Very recently, we have designed another library with a c-abl motif (“Abltide”): EAIY(P)AAPFAKKXn (SEQ ID NO:217).
After screening about one million beads with MG, we identified four peptides that greatly activate MG in phosphorylated but not dephosphorylated form (Table 7). Photomicrograph of LLT4bead is shown in FIG. 21, with a marked decrease in fluorescent signal (relative arbitrary level of 1930 to 93 and a ΔF/F value of 19; see right columns of Table 7) after dephosphorylation (treatment with 50% HF). High consensus was observed. All 4 beads have a Tyr at X7, a negative-charged amino acid at X4, hydrophobic amino acids at X1, X6 and X8 (3 out 4 have Val at X6 and Tyr at X8). Three out four beads have a positive-charged amino acid at X2 position. To discover GESIs for PKA, we will include the known PKA substrate motif (RRX[S/T]; SEQ ID NO:223) into the OBOC libraries. In some libraries, the known kinase substrate motifs will be placed between two stretches of random residues. In some cases, we have found increased (instead of decrease) fluorescence after dephosphorylation. These peptides are potential leads for developing phosphatase sensors.

[2] = MG binding of peptide ligands from screening and their derivatives; set-up: key to MG binding: −: no binding; +: weak binding; ++: mild binding; +++: strong binding; ++++: very strong binding; settings: for MG binding: 11 hour incubation with 5 μM MG in PBS buffer (pH 7.4); for MG binding of phosphorylated form (in words): phosphorylated but not unphosphorylated form
[3] = Sequential screening of PDMS affixed OBOC bead array with three dyes; format: binding; settings: 100 μM dye in PBS, three dyes incubated sequentially on the same bead array
Description: Silicon Elastomer Base was mixed completely with Silicone Elastomer Curing Agent at ratio 10:1 in volume and the solution was kept in vacuum container for 15 to 20 minutes to eliminate the gas bubbles formed during the mixing process. After the removal of all residual bubbles, approximately 0.5-1 mL of PDMS solution was added into the bottom of a 60 mm culture dish. The dish was then spun on a single wafer spin processor (Laurell Technologies Corporation®, model WS-6505-6NPP/Lite) to evenly distribute the solution over the plates, at a speed of 4000 rpm for 30 s. A 5 μm layer of PDMS was formed on the bottom of dish and was cured at 80° C. for 5 min or at room temperature for 24 hrs to allow for beads immobilization. Knowing that the PDMS coating was about 5 μm thick and the radius of bead was around 45 μm, the percentage of free bead surface area was estimated by the formula of [1-2πrh/4πr^2]×100% (h=thickness of PDMS layer; r=radius of bead) to be approximately 95%. The library beads resuspended in 70% ethanol solution were first randomly placed on the surface of a glass plate that was 10% smaller than the dish used in the experiment. After the ethanol evaporated, a syringe needle was used to adjust the dry beads to evenly redistribute beads on the glass surface. Then the dish was inverted and the PDMS layer was pressed down onto the glass plate with beads. The library beads were embedded partly inside the PDMS layer.
Dye solutions were prepared in PBS to a 100 μM final concentration and 5 mL of each dye solution were added into the 60 mm dish with beads. Three dyes were tested sequentially. The dish was kept swirling at 60 rpm on the rotator. The dye binding was monitored for 90 minutes, and then the dye solution was removed from the dishes and PBS was added to rinse the beads on the bottom to remove the color dye. The PBS solution was changed every 30 min and the dish was always swirled as above. The beads color change was also observed and recorded at certain time interval during the whole wash process to collect data of color dissociation. Before adding the next dye solution, beads were washed with 70% ethanol to completely remove residual dye and were rinsed with PBS solution three times afterwards.
A representative positive bead for each color was selected for the color binding and dissociation study. A series of images were taken at different time points during the binding and washing process. From the images taken, regions of interest (ROI) with the same size were picked up from the color beads and colorless control beads. The value from the control bead was subtracted from the color bead to get quantitated color value for each single color bead. The measure of the color intensity for each color dye was performed using the Kodak Image Station 2000MM.
The PDMS affixed bead array was incubated with three different dyes sequentially. […] Eleven beads were selected for further analysis based on their characteristic binding profiles (FIG. 2). […] The amino acid sequences of the peptides bound to the beads were determined (Table 1).

[4] = Fluorescence titration of peptide in solution with MG, 2 mM Ca2+, 650 nm; format: binding
Description: Two peptides that can activate MG with or without calcium sensitivity were selected for further characterization. A solution form of the two peptides were synthesized and titrated with MG in the presence of 2 mM Ca^2+. Fluorescent signal at 650 nm was measured. […] Computational modeling confirmed stably folded structure of peptide 12 upon MG binding, preventing intramolecular motions of MG (FIG. 8B, FIG. 10A, B). […] The immobilized peptides on TentaGel beads were then titrated with an increasing amount of MG in the presence and absence of 2 mM Ca^2+. Fluorescent emission at 650 nm by each individual bead was measured. […] Computational modeling further confirmed that stably folded structure of peptide 2 only forms upon calcium binding (FIG. 11B).

With “EAIY(P)AAPFAKKLYIMDGWF (EAI[pY]AAPFAKKLYIMDGWF) [LLT4]” the Post-dephos fluorescent signal [1] was 93 relative arbitrary level, the Pre-dephos fluorescent signal [1] was 1930 relative arbitrary level and the ΔF/F [1] was 19.

For “3C (CDNYI[pY]GSFKNPWEWC; disulfide 1-16 (inferred)) [Peptide 3C]”, the MG binding [2] was “++++”.

For “DRDGDGDHRKIE (synthetic genetically encoded small illuminant (GESI) malachite green (MG) binding Peptide 3)”, the MG binding [2] was “+++”.

With “EAIY(P)AAPFAKKYYVQDSRA (EAI[pY]AAPFAKKYYVQDSRA) [LLT2]” the Post-dephos fluorescent signal [1] was 44 relative arbitrary level, the Pre-dephos fluorescent signal [1] was 575 relative arbitrary level and the ΔF/F [1] was 12.

With “CMTQEAC (synthetic genetically encoded small illuminant (GESI) peptide of bead #8)” the Dye binding ([3]; listed as # 8) was “Malachite green” and the Dye binding ([3]; listed as #8) was “only bind to malachite green; also recorded: bind only to malachite green”.

In the case of “CGNTEPC (synthetic genetically encoded small illuminant (GESI) peptide of bead #6)”, the Dye binding ([3]; listed as # 6) is reported as “Malachite green” and the Dye binding ([3]; listed as #6) is reported as “only bind to malachite green; also recorded: bind only to malachite green”.

In the case of “5C (CDTYI[pY]GSFKVNPDC; disulfide 1-15 (inferred)) [Peptide 5C]”, the MG binding [2] is reported as “+++”.

With “1C (CDDYI[pY]GSFKPYIAC; disulfide 1-15 (inferred)) [Peptide 1C]” the MG binding [2] was “++++”.

With “CLSDEFC (not fully specified (bridges); cysteine pairing not given here; also: bead-bound) [Bead #11]” the Dye binding ([3]; listed as # 11) was “Malachite green” and the Dye binding ([3]; listed as #11) was “only bind to malachite green; also recorded: bind only to malachite green”.

For “DSDSWGEYFHEE (synthetic genetically encoded small illuminant (GESI) malachite green (MG) binding Peptide 4)”, the MG binding [2] was “++” and the “MG binding of phosphorylated form (in words)” value (“MG binding … (in words)” for short) [2] was “bound MG”.

With “CEIHRIC (synthetic genetically encoded small illuminant (GESI) peptide of bead #9)” the Dye binding ([3]; listed as # 9) was “Bromocresol” and the Dye binding ([3]; listed as #9) was “only bind to bromocresol purple; also recorded: bind only to bromocresol purple”.

In the case of “EAIY(P)AAPFAKKYYVSERKW (EAI[pY]AAPFAKKYYVSERKW) [LLT3]”, the Post-dephos fluorescent signal [1] is reported as 63 relative arbitrary level, the Pre-dephos fluorescent signal [1] is reported as 835 relative arbitrary level and the ΔF/F [1] is reported as 12.

In the case of “4C (CDVYI[pY]GSFKYWPAC; disulfide 1-15 (inferred)) [Peptide 4C]”, the MG binding [2] is reported as “++++”.

With DWWDWGNHGYTE [Peptide 12] the “Binding characteristics in solution studies” value [4] was “strong binding characteristics”, the Kd ([4]; binding to MG, read-out: binding affinity) was 0.41 nM and the Kd ([4]; peptide in solution, 2 mM Ca2+, one-site specific binding, read-out: Kd) was ~0.41 nM.

In the case of “CHPLLPC (not fully specified (bridges); cysteine pairing not given here; also: bead-bound) [Bead #5]”, the Dye binding ([3]; listed as # 5) is reported as “Bromocresol” and the Dye binding ([3]; listed as #5) is reported as “only bind to bromocresol purple; also recorded: bind only to bromocresol purple”.

With “DILDDGDEIQGE (synthetic genetically encoded small illuminant (GESI) malachite green (MG) binding Peptide 1)” the MG binding [2] was “+” and the “MG binding … (in words)” value [2] was “bound MG”.

In the case of “CLMNKWC (not fully specified (bridges); cysteine pairing not given here; also: bead-bound) [Bead #2]”, the Dye binding ([3]; listed as #2) is reported as “bind to both indigo carmine and bromocresol purple”.

In the case of “CQPDLTC (not fully specified (bridges); cysteine pairing not given here; also: bead-bound) [Bead #3]”, the Dye binding ([3]; listed as # 3) is reported as “Malachite green” and the Dye binding ([3]; listed as #3) is reported as “only bind to malachite green; also recorded: bind only to malachite green”.

With “2C (CDVYI[pY]GSFKNDYIC; disulfide 1-15 (inferred)) [Peptide 2C]” the MG binding [2] was “++++”.

With “3-P (DNYIYGSFKPWEWC; synthetic genetically encoded small illuminant (GESI) malachite green (MG) binding peptide 3-P from linear library L-1)” the MG binding [2] was “++”.

With “DFMRQGVYDIPE (synthetic genetically encoded small illuminant (GESI) malachite green (MG) binding Peptide 5)” the MG binding [2] was “++” and the “MG binding … (in words)” value [2] was “bound MG”.

For “CYKWWVC (synthetic genetically encoded small illuminant (GESI) peptide of bead #7)”, the Dye binding ([3]; listed as #7) was “bind to both indigo carmine and bromocresol purple”.

For “EAIY(P)AAPFAKKYYVYDMHI (EAI[pY]AAPFAKKYYVYDMHI) [LLT1]”, the Post-dephos fluorescent signal [1] was 72 relative arbitrary level, the Pre-dephos fluorescent signal [1] was 939 relative arbitrary level and the ΔF/F [1] was 12.
